The nature of data set [1]: Excretion/elimination of BI 1356 at therapeutic oral dose levels. Type of data set: in vivo.
A short description of data set [2]: Safety and tolerability in people with type 2 diabetes. The class given is in vivo.

“Also recorded” adds a separate entry of the source.

For `CC#CCn1c(N2CCC[C@@H](N)C2)nc2c1c(=O)n(Cc1nc(C)c3ccccc3n1)c(=O)n2C` [BI 1356, 1-[(4-methyl-quinazolin-2-yl)methyl]-3-methyl-7-(2-butyn-1-yl)-8-(3-(R)-amino-piperidin-1-yl)-xanthine], in data set [1], the “fraction excreted via the kidney” value is on record as < 7 % of the administered oral dose and the “main route of excretion” value is recorded as “mainly excreted via the liver; also recorded: primarily excreted unchanged via the bile”. Also, the safety and tolerability result in data set [2] is “placebo-like safety and tolerability”.
